Test: xn = mol fraction of the nth substance listed
Details: 101.3 kPa

Work on `CCCCCO` + CC[n+]1ccn(C)c1.O=S(=O)([O-])C(F)(F)F yielded a speed of sound (298.15 K, x1 = 1) of 1274.9 m/s, a speed of sound (308.15 K, x1 = 1) of 1241.4 m/s and a speed of sound (328.15 K, x1 = 1) of 1175.3 m/s.
In the case of `CC[n+]1ccn(C)c1.O=S(=O)([O-])C(F)(F)F` + CCCCCO, the speed of sound (298.15 K, x2 = 0) was 1435.8 m/s, the speed of sound (298.15 K, x2 = 0.0507) was 1431.8 m/s and the speed of sound (298.15 K, x2 = 0.108) was 1423.1 m/s. The speed of sound (298.15 K, x2 = 0.2365) was 1395.2 m/s, the speed of sound (298.15 K, x2 = 0.3297) was 1373.9 m/s and the speed of sound (298.15 K, x2 = 0.4357) was 1348.1 m/s. For the same compound, the speed of sound (298.15 K, x2 = 0.5702) was 1317.4 m/s, the speed of sound (298.15 K, x2 = 0.5941) was 1312 m/s and the speed of sound (298.15 K, x2 = 0.7208) was 1287.9 m/s. For the same compound, the speed of sound (298.15 K, x2 = 0.8515) was 1273.4 m/s, the speed of sound (298.15 K, x2 = 0.8998) was 1271.4 m/s and the speed of sound (298.15 K, x2 = 0.9479) was 1271.7 m/s. For the same compound, the speed of sound (308.15 K, x2 = 0) was 1413.5 m/s, the speed of sound (308.15 K, x2 = 0.0507) was 1409.5 m/s and the speed of sound (308.15 K, x2 = 0.108) was 1400.8 m/s. The speed of sound (308.15 K, x2 = 0.1716) was 1387.5 m/s, the speed of sound (308.15 K, x2 = 0.3297) was 1350.8 m/s and the speed of sound (308.15 K, x2 = 0.5702) was 1292.8 m/s. For the same compound, the speed of sound (308.15 K, x2 = 0.5941) was 1287.2 m/s, the speed of sound (308.15 K, x2 = 0.7208) was 1261.6 m/s and the speed of sound (308.15 K, x2 = 0.8085) was 1249.1 m/s. The speed of sound (308.15 K, x2 = 0.8515) was 1244.7 m/s, the speed of sound (308.15 K, x2 = 0.8998) was 1241.4 m/s and the speed of sound (308.15 K, x2 = 0.9479) was 1240.2 m/s. The speed of sound (318.15 K, x2 = 0.108) was 1378.7 m/s, the speed of sound (318.15 K, x2 = 0.1716) was 1365.4 m/s and the speed of sound (318.15 K, x2 = 0.2365) was 1350.1 m/s. For the same compound, the speed of sound (318.15 K, x2 = 0.3297) was 1328 m/s, the speed of sound (318.15 K, x2 = 0.4357) was 1301.1 m/s and the speed of sound (318.15 K, x2 = 0.5702) was 1268.5 m/s. For the same compound, the speed of sound (318.15 K, x2 = 0.5941) was 1262.7 m/s, the speed of sound (318.15 K, x2 = 0.8085) was 1221.4 m/s and the speed of sound (318.15 K, x2 = 0.8515) was 1216.1 m/s. It also gave a speed of sound (318.15 K, x2 = 0.8998) of 1211.5 m/s, a speed of sound (328.15 K, x2 = 0) of 1369.8 m/s and a speed of sound (328.15 K, x2 = 0.108) of 1357.1 m/s. The speed of sound (328.15 K, x2 = 0.2365) was 1328.1 m/s, the speed of sound (328.15 K, x2 = 0.3297) was 1305.7 m/s and the speed of sound (328.15 K, x2 = 0.4357) was 1278.1 m/s. It also gave a speed of sound (328.15 K, x2 = 0.5702) of 1244.5 m/s, a speed of sound (328.15 K, x2 = 0.5941) of 1238.5 m/s and a speed of sound (328.15 K, x2 = 0.8085) of 1194 m/s. For the same compound, the speed of sound (328.15 K, x2 = 0.8515) was 1187.7 m/s, the speed of sound (328.15 K, x2 = 0.8998) was 1181.9 m/s and the speed of sound (328.15 K, x2 = 0.9479) was 1177.7 m/s.
